From paper PMC7205193, “Crystal structure of the mitochondrial protein mitoNEET bound to a benze-sulfonide ligand” (Communications chemistry, 2019)
“And” between values parts separate entries of the source, which are not always exact repeats. Identical values can stand only once. “Also recorded” adds a separate entry of the source.

Experiments:
mitoNEET [1] = biological target: T1, mitoNEET (Homo sapiens, UniProt Q9NZ45); test: [3H]rosiglitazone displacement binding assay (SPA); conditions: 20 nM [3H]rosiglitazone, 60 min, room temperature, 50 mM Tris pH 8; ± std error
T1 sequence (Q9NZ45 32-108 limits assumed): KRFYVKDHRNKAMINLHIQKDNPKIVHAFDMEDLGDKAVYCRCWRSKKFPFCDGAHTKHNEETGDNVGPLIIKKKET
Protocol: Recombinant mitoNEET was attached to nickel scintillation proximity assay (SPA) beads, and incubated with 20 nM [^3H] rosiglitazone (PerkinElmer) for 60 min at room temperature. The binding buffer was 50 mM Tris pH 8. White clear bottom 96-well plates were used for the assay, and the counts per minute analyzed in a MicroBeta Counter (Perkin Elmer). Data were analyzed as fraction of the total binding using a one-site model with GrapPad Prism 6 statistical software.

N2A mouse neuronal cells = test: Seahorse bioenergetics mitochondrial stress test; format: cell-based; conditions: 20 μM, three hours, vs DMSO vehicle
Protocol: Mitochondrial bioenergetics were evaluated by the use of the Seahorse 96-well plate reader. Cells were grown in specialty plates from the company, at 20,000 cells per well of N2A mouse neuronal cells. The cells were treated with compounds at 20 μM for three hours, and then a mitochondrial stress test (Seahorse Biosciences) done using compounds which affect mitochondrial function, including oligomycin, FCCP, rotenone, and antimycin A.

mitoNEET [2] = biological target: T1, mitoNEET; test: Surface plasmon resonance; conditions: SPR, PBST pH 7.4, 1% DMSO, 25 °C, one-to-one binding model; read-out: equilibrium dissociation constant Kd
Protocol: Experiments were performed using Reichert4SPR refractometer system (Reichert Technologies, Depew, NY, USA) equipped with a dextran SPR sensor chip (Reichert carboxymethyl dextran P/N 13206066). Acetate buffer was used for immobilization of the protein MN (ligand). […] Data analysis were performed with TraceDrawer software. Final Kd values were determined by fitting to a one-to-one binding model.

mitoNEET [3] = biological target: T1, mitoNEET; test: Pull-down capture assay with furosemide probe on streptavidin beads; format: binding; conditions: 0–100 μM furosemide, N2A cell lysate with recombinant mitoNEET, 100 μM probe, Western blot
Protocol: For the ELISA assay, streptavidin plates (Pierce) were incubated for 30 min with a dose-dilution of the probe, after which an equal amount of recombinant mitoNEET protein was placed into the wells. After 2 h incubation at 4 °C, the plate was washed with a wash buffer with PBS pH 7.4 containing 0.05% Tween-20. The amount of mitoNEET was determine using a mitoNEET primary antibody (ProteinTech) 1:1000, followed by secondary anti-rabbit horseradish peroxidase antibody 1:2000 for 1 h. Detection of the color was done at 450 nm after addition of 3,3′,5,5′-tetramethylbenzidine solution and stopping solutions (Pierce). For the capture assay, N2A cells were lysed and collected with radio-immunoprecipitation assay buffer. […] At the end of the experiment, a magnetic tube rack was used to attract the magnetic beads. The solutions were washed with PBST (pH 7.4, 0.05% Tween-20), boiled for 5 min, and run on a BioRad 4–20% gel for Western Blot analysis (mitoNEET primary antibody 1:1000 and secondary HPR 1:2000).

[4] = biological target: T2, mitoNEET [2Fe-2S] cluster (Homo sapiens, UniProt Q9NZ45); test: Iron-sulfur cluster release assay; format: biochemical; conditions: 20 μM, pH 6.5, absorbance at 458 nm, room temperature
T2 sequence (Q9NZ45 with tags, fused parts or gaps): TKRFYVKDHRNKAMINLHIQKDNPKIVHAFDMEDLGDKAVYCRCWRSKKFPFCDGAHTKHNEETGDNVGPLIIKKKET
Protocol: This method was adapted as previously described. MitoNEET was prepared as described earlier and a stock of 4 mg/mL was used in the assay, in a 50 mM Tris buffer pH 8. […] In each well 80 μL of the appropriate buffer, with either vehicle or compound, and then mitoNEET protein was added at 20 μL. The 96-well plate was analyzed in a BioTek Synergy 4 plate reader, reading at 458 nm for a period of time, at room temperature. For the pH 8, we used 50 mM Tris pH 8, with 100 mM NaCl, and for the pH 6.5, we used the 50 mM Bis–Tris pH 6.5 with 100 mM NaCl buffer solution.

[5] = Dynamic light scattering aggregate formation; format: physicochemical; conditions: 20 μM in PBS pH 7.4
Protocol: This stock solution was diluted into PBS pH 7.4 to a final concentration of 20 μM, and the evaluated using a Malvern DLS Nano-ZS-90 system (Malvern Instruments).

[6] = tested on: recombinant mitoNEET (mitoNEET-His protein); set-up: method as in PMID 27687671; conditions: read-out: IC50, binding to mitoNEET; cited from earlier work
[7] = biological target: the molecule itself; test: crystal structure; mitoNEET (20 mg/ml) with equimolar furosemide, sitting drop vapor diffusion, 60% v/v Tacsimate pH 7.0; 1.95 Å; MR-SAD with PDB 3REE as search model

For `CCCCC/C=C\C/C=C\C/C=C\C/C=C\CCCC(=O)O` [Arachidonic acid, reference compound], the IC50 (mitoNEET [1]) was 2.93 ± 1.06 µM.

With `NS(=O)(=O)c1cc(C(=O)O)c(NCc2ccccc2)cc1Cl` [2l] the ATP-linked oxygen consumption (N2A mouse neuronal cells) was “increase”, the “basal respiration (oxygen consumption rate)” value (“basal respiration” below) (N2A mouse neuronal cells) was “increase” and the maximal respiration (N2A mouse neuronal cells) was “increase”. For the same molecule, the IC50 (mitoNEET [1]) was 20.7 µM and 20.8 µM.

With `NS(=O)(=O)c1cc(C(=O)O)c(NCc2ccco2)cc1Cl` [Furosemide, furosemide] the “basal respiration” value (N2A mouse neuronal cells) was “increase”, the maximal respiration (N2A mouse neuronal cells) was “increase” and the proton leak (N2A mouse neuronal cells) was “trended to increase”. For the same molecule, the IC50 (mitoNEET [1]) was 29.3 ± 0.97 µM, the Kd (mitoNEET [2]) was 53.5 µM and the “mitoNEET captured by furosemide probe in presence of competitor” value (mitoNEET [3]) was “dose-dependently the reduction of mitoNEET captured; also recorded: able to reduce the amount of mitoNEET captured”. For the same molecule, the “iron-sulfur cluster release from mitoNEET” value [4] was “able to slow down cluster release”, the “iron-sulfur cluster release from mitoNEET” value ([4]; listed as furosemide) was “able to reduce cluster loss” and the “aggregate formation in solution (DLS)” value [5] was “did not observe any aggregate formation”. For the same molecule, the IC50 [6] was about 40 µM.

With `CCCCNc1cc(Cl)c(S(N)(=O)=O)cc1C(=O)O` [2b] the IC50 (mitoNEET [1]) was 42.6 ± 1.03 µM.

`CCCCCNc1cc(Cl)c(S(N)(=O)=O)cc1C(=O)O` [2c] gave an IC50 (mitoNEET [1]) of 54.3 ± 0.92 µM.

Work on `NS(=O)(=O)c1cc(C(=O)O)c(NCc2ccc(F)cc2)cc1Cl` [2n] yielded an IC50 (mitoNEET [1]) of 8.82 ± 1 µM.

Work on `NS(=O)(=O)c1cc(C(=O)O)c(Cl)cc1Cl` [compound 1, 2,4-dichloro-5-sulfamoylbenzoic acid, reference compound] yielded an IC50 (mitoNEET [1]) of 1021 ± 0.96 µM.

With `NS(=O)(=O)c1cc(C(=O)O)c(NCc2cccs2)cc1Cl` [2p] the IC50 (mitoNEET [1]) was 12.4 ± 1.23 µM.

With `CCCCCCNc1cc(Cl)c(S(N)(=O)=O)cc1C(=O)O` [2d] the IC50 (mitoNEET [1]) was 9.12 ± 1.04 µM.

With `CCCNc1cc(Cl)c(S(N)(=O)=O)cc1C(=O)O` [2a] the IC50 (mitoNEET [1]) was 81 µM and 81.4 µM.

For `CCCCCCCNc1cc(Cl)c(S(N)(=O)=O)cc1C(=O)O` [2e], the IC50 (mitoNEET [1]) was 19.8 ± 0.9 µM.

In the case of `CCCCCCCCNc1cc(Cl)c(S(N)(=O)=O)cc1C(=O)O` [2f], the ATP-linked oxygen consumption (N2A mouse neuronal cells) is reported as “increase”, the “basal respiration” value (N2A mouse neuronal cells) is reported as “increase” and the maximal respiration (N2A mouse neuronal cells) is reported as “increase”. For the same molecule, the IC50 (mitoNEET [1]) was 6.2 µM and 6.24 µM and the melting point was 184 to 185 °C.

B1: soluble domain of human mitoNEET (domain or fragment)
chain: T2 sequence (Q9NZ45 with tags, fused parts or gaps)
notes: mitoNEET (gene cisd1), human, soluble domain; Each subunit holds a [2Fe-2S] cluster (His87 and three cysteines); also called mN; MN; source: E. coli Rosetta 2 (DE3), purified (Ni-NTA, SUMO protease digestion, second Ni-NTA, size exclusion chromatography); not shown: His-SUMO, N-terminal, cleaved
B1: binds [7].
